# Measurements from US20220362386A1, “LIQUID COMPOSITIONS COMPRISING A LEVODOPA AMINO ACID CONJUGATE AND USES THEREOF” (NeuroDerm, Ltd., priority 2019, published 2022).
# Counter-ions that a name gives are not always drawn. Like-named read-outs stand apart in the source and are kept apart here. Non-standard residues stand in square brackets, D forms with d. Residues, ends and D or L forms follow the SMILES beside them. Dopa = N[C@@H](Cc1ccc(O)c(O)c1)C(=O)O
# Tests used:
# [1] = in vitro; settings: human
# [2] = test system: human plasma; assay: Protein binding, solid phase extraction (SPE) method; assay type: in vitro ADME; settings: 1.0E−05M; SPE sample preparation
# In short: (§1)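 Human plasma spiked with test compound at 10 μM, diluted 1:1 with 4% aqueous phosphoric acid and mixed 15 min before solid phase extraction. Mixed-mode cation exchange (MCX) sorbent used a 2% formic acid wash and 5% NH4OH/methanol elution. Anion exchange (MAX) sorbent used a 5% NH4OH wash and 2% formic acid/methanol elution.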
# [3] = as above; assay type: in vitro ADME, human; settings: human, human plasma, 1.0E−05M, SPE sample preparation
# In short: as §1
# [4] = In-vitro metabolism of LDAA compounds using liver microsomes; assay type: in vitro ADME, human; settings: for half-life at 0.1 μM / microsomal CLint at 0.1 μM: both sexes, human, pooled human liver microsomes; for half-life at 0.1 μM: pH 7.4, 1.0E−07M, 0.1 mg/mL microsomal protein; for microsomal CLint at 0.1 μM: pH 7.4, calculated from the half-life; for microsomal CLint at 0.1 μM / % Compound Remaining 1st / % Compound Remaining 2nd / % Compound Remaining Mean: 1.0E−07M
# In short: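 Compounds at 0.1 μM were incubated at 37° C with pooled mixed-gender human liver microsomes (0.1 mg/mL protein) in phosphate buffer pH 7.4 plus an NADPH-generating system for 0–60 min. Remaining parent was quantified by HPLC-MS/MS versus time zero; t1/2 came from first-order fits, and Clint = 0.693/(t1/2×protein concentration).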
# [5] = Caco-2, pH 7.4, Percent Recovery 1st
# [6] = Caco-2, pH 7.4, Percent Recovery 2nd
# [7] = Caco-2, pH 7.4, Percent Recovery Mean
# [8] = Caco-2, pH 7.4, Permeability 1st
# [9] = Caco-2, pH 7.4, Permeability 2nd
# [10] = Caco-2, pH 7.4, Permeability Mean
# [11] = read-out: Half-Life (minute) 1st
# [12] = read-out: Half-Life (minute) 2nd
# [13] = read-out: Half-Life (minute) Mean
Structure (SMILES),"recovery at 40 min, 10 μM [1, 5]","recovery at 40 min, 10 μM [1, 6]","recovery at 40 min, 10 μM [1, 7]","Papp B→A at 40 min, 10 μM [1, 8]","Papp B→A at 40 min, 10 μM [1, 9]","Papp B→A at 40 min, 10 μM [1, 10]",% Protein Bound 1st [2],% Protein Bound 2nd [2],% Protein Bound Mean [2],recovery at 10 μM ([3]; read-out: % Recovery 1st),recovery at 10 μM ([3]; read-out: % Recovery 2nd),recovery at 10 μM ([3]; read-out: % Recovery Mean),"half-life at 0.1 μM [4, 11]","half-life at 0.1 μM [4, 12]","half-life at 0.1 μM [4, 13]",microsomal CLint at 0.1 μM [4],% Compound Remaining 1st ([4]; incubation time 0 minutes),% Compound Remaining 2nd ([4]; incubation time 0 minutes),% Compound Remaining Mean ([4]; incubation time 0 minutes),% Compound Remaining 1st ([4]; incubation time 15 minutes),also measured
"N[C@@H](Cc1ccc(O)c(O)c1)C(=O)O [LD (control), L-3,4-dihydroxyphenylalanine, reference compound]",101%,92%,96%,0.38 ×10⁻⁶ cm/s,0.41 ×10⁻⁶ cm/s,< 0.4 ×10⁻⁶ cm/s,30.4%,20.2%,25%,59%,78%,68%,116 min,131 min,> 60 min,< 116 µL/min/mg,100%,100%,100%,102.5%,% Compound Remaining 2nd ([4]; incubation time 15 minutes): 97.8%; % Compound Remaining Mean ([4]; incubation time 15 minutes): 100%; % Compound Remaining 1st ([4]; incubation time 30 minutes): 93.2%; % Compound Remaining 2nd ([4]; incubation time 30 minutes): 89.3%; % Compound Remaining Mean ([4]; incubation time 30 minutes): 91%; % Compound Remaining 1st ([4]; incubation time 45 minutes): 80.1%; % Compound Remaining 2nd ([4]; incubation time 45 minutes): 78%; % Compound Remaining Mean ([4]; incubation time 45 minutes): 79%; % Compound Remaining 1st ([4]; incubation time 60 minutes): 72.3%; % Compound Remaining 2nd ([4]; incubation time 60 minutes): 75.2%; % Compound Remaining Mean ([4]; incubation time 60 minutes): 74%
"NCCCC[C@H](NC(=O)[C@@H](N)Cc1ccc(O)c(O)c1)C(=O)O [LD-Lys TFA salt, Levodopa Lysine TFA Salt] (H-[Dopa]-Lys-OH)",79%,86%,82%,0.03 ×10⁻⁶ cm/s,0.03 ×10⁻⁶ cm/s,< 0.03 ×10⁻⁶ cm/s,0.3%,18.7%,10%,79%,63%,71%,91.3 min,58.3 min,> 60 min,< 116 µL/min/mg,100%,100%,100%,{123.5%,% Compound Remaining 2nd ([4]; incubation time 15 minutes): 96.7%; % Compound Remaining Mean ([4]; incubation time 15 minutes): 97%; % Compound Remaining 1st ([4]; incubation time 30 minutes): 64.2%; % Compound Remaining 2nd ([4]; incubation time 30 minutes): 83.5%; % Compound Remaining Mean ([4]; incubation time 30 minutes): 74%; % Compound Remaining 1st ([4]; incubation time 45 minutes): 76.7%; % Compound Remaining 2nd ([4]; incubation time 45 minutes): {43.7} %; % Compound Remaining Mean ([4]; incubation time 45 minutes): 77%; % Compound Remaining 1st ([4]; incubation time 60 minutes): 59.5%; % Compound Remaining 2nd ([4]; incubation time 60 minutes): 50.4%; % Compound Remaining Mean ([4]; incubation time 60 minutes): 55%
